Laboratory results reported in a melting point compilation (Tetko et al.; mined from patent text by program, amines drawn as free bases though some values may be those of a salt).

Row | melting point | SMILES
1 | 158 °C | Cc1ccc2nc(-c3ccccc3)cc(OCC(=O)N3CCOCC3)c2c1
2 | 111 to 115 °C | CCOC(=O)C1=Cc2cc([N+](=O)[O-])ccc2OC1C(F)(F)F (stereo not given)
3 | 186 to 188 °C | O=C1CC2Cc3ccccc3N2CCN1 (stereo not given)
4 | 170 to 171 °C | CC(C)C(=O)Nc1c(C(=O)c2occc2CO)[nH]c2cc(Cl)ccc12
5 | 264 °C | N#Cc1c(N2CCN(C(=O)c3cccs3)CC2)c2ccccc2[nH]c1=O
6 | 237 to 238 °C | CC(=O)N1C(=O)C2(CC2)c2ccc(N3C(=O)C4=C(CCCC4)C3=O)cc21
7 | 74 °C | CC(C)C=CC(CC1CCCCC1)NC(=O)OC(C)(C)C (racemic)
8 | 102 to 104 °C | O=S(c1ccc(C=Cc2nc(CCl)co2)cc1)C(F)(F)F (stereo not given)
9 | 199 to 201 °C | COC(=O)c1cn2c(=O)c(Br)c(C)nc2s1
10 | 127 to 129 °C | O=C1CC(CO)(C(=O)N(Cc2ccccc2)Cc2ccccc2)CN1Cc1ccccc1 (stereo not given)
11 | 204 °C | N#Cc1cnn2c(C(F)(F)F)cc(-c3cccc(Cl)c3)nc12
12 | 234 to 237 °C | CC(C)C1(C)NC(c2nc3ccc(Cl)cc3cc2C(=O)O)=NC1=O (stereo not given)
13 | 103 to 109 °C | O=Cc1ccc(OCc2ccc3ccccc3c2)cc1
14 | 148 to 150 °C | N#CSCCNc1ccc([N+](=O)[O-])cc1Cl
15 | 203 to 204 °C | NC(=O)CNC(=O)c1cccc(-c2cccc3nc(Oc4cccc(C(F)(F)F)c4)sc23)c1
16 | 182 to 183 °C | CC(C)(C)c1cc(N(C(=O)CCC(=O)O)c2cccc(C(=O)O)c2)cc(C(C)(C)C)c1O
17 | 164 to 168 °C | COc1ccc2c(c1)CCC1C2CCC2(C)C=CCC12 (stereo not given)
18 | 139 to 140 °C | COC(=O)C1Cc2c(n(C)c3ccccc23)CN1C(=S)SCc1cccs1 (stereo not given)
19 | 139 to 140 °C | O=C(O)CCc1cnoc1-c1ccc(Cl)c(F)c1
20 | 223 to 226 °C | CNc1cccc(-c2ccc3nnc(C)n3n2)c1
21 | 74 °C | CC(=O)n1c(=O)sc2c(Cl)cccc21
22 | 151 to 153 °C | O=c1oc(-c2ccccc2)nc2cccc(Cl)c12
23 | 146 to 147 °C | COC(=O)C1(NC(=O)Cc2cc(-c3ccc(Cl)cc3)ccc2Cl)CCC(F)(F)CC1
24 | 211 to 213 °C | CC[C@H](C)[C@H](NC(=O)NC(C)C)C(=O)N[C@H](CO)Cc1c[nH]c2ccccc12
25 | 176 to 178 °C | NCCNC(=O)COc1ccc(C2=NNC(=O)CC2)cc1
26 | 105 to 106 °C | CC(C)=CCc1c(C)c(C)c(O)c(C)c1C

Row | melting point | SMILES
27 | 118 °C | O=[N+]([O-])c1ccc(N2CCN(CCCCCCCCCCCO)CC2)cc1
28 | 80 to 85 °C | CC(C)COc1c(-c2ccc(S(N)(=O)=O)cc2)cnn(-c2cccc(Cl)c2)c1=O
29 | 264 °C | O=C1C2=C(SCCO2)C(=O)N1c1ccc2ccc(Cl)nc2n1
30 | 188 to 192 °C | CCCN(C=O)n1cc(C(=O)OCC)c(=O)c2cc3c(cc21)OCO3
31 | 186 to 187 °C | O=C1CC2Cc3c(Cl)cccc3C2N1 (stereo not given)
32 | 228 to 230 °C | COc1ccc(N2CCOCC2)c2sc(NC(=O)c3ccnc(CN(C)C(C)=O)c3)nc12
33 | 137 to 142 °C | CNC(=NCCSSCc1nc[nH]c1C)NC#N
34 | 89 to 90 °C | CCCCCCCCCC(=O)OC(=C(OC(=O)CCCCCCCCC)c1ccccn1)c1ccccn1
35 | 295 to 297 °C | CC(C)(C)n1nc2c(=O)[nH]c3ccccc3c2c1CO
36 | > 300 °C | Cn1nnnc1-c1cnc2ccc(F)cc2c1O
37 | 178 to 179 °C | Cc1ccc(S(=O)(=O)N(Cc2ccc(C#N)cc2F)C2CCCC2)cc1
38 | 135 °C | COc1cccc(C(=O)Nc2ccc3ccc(OC)nc3n2)c1
39 | 170 to 173 °C | CNC(=O)Nc1ccc2c(c1)C(CN1CCC(c3ccc(F)cc3)CC1)CC2 (stereo not given)
40 | 149 to 152 °C | CC(C)c1ccc(C(=O)CC(c2ccccc2)c2ccccc2)c(C(C)C)c1OS(N)(=O)=O
41 | 181 to 183 °C | CN1CCN(c2ccc(S(=O)(=O)Oc3cc(Cl)c(Cl)cc3Cl)cc2)C1=O
42 | 174 to 176 °C | COCCc1nc2c(N)nc3ccccc3c2n1CCCNC(=O)OC(C)(C)C
43 | 97 to 100 °C | O=Cc1cc2c(cc1O)CCCO2
44 | 55.6 °C | Cn1c(C(F)(F)F)cc(=O)n(-c2cc(Oc3ccccc3OCC(=O)OC(C)(C)C)c(Cl)cc2F)c1=O
45 | 203 to 206 °C | CCOCCc1cc2c(nc(O)n2CCCCS(C)(=O)=O)c(N)n1
46 | 91 to 92 °C | CC1(C)OC(=O)C(=CC2CC2)C(=O)O1
47 | 145 to 146 °C | COC1CCN(Cc2ccc(C#CC(=O)Nc3ccc(-c4ccc(Cl)cc4)cc3)cc2)CC1
48 | 295 to 296 °C | O=c1[nH]c2cccc(Cl)c2c2cc(CO)nn12
49 | 108 to 109 °C | CC1NC(=Nc2ccccc2N2CCOCC2)N(CCO)C1C (stereo not given)
50 | 133 to 135 °C | C=C(C)Cc1c(O)c(C)c(C)c2c1CC(C)N2C=O (stereo not given)
51 | 112 to 113 °C | CCOCCCOc1ccc(-c2ccc3c(c2)C=C(C(=O)OC)CCN3C=O)cc1
52 | 52 to 53 °C | CC(C)(O)C#Cc1ccccc1

Row | melting point | SMILES
53 | 183 to 184 °C | CC(C)C#CC1(C(F)(F)F)OCC(=O)Nc2ccc(Cl)cc21 (stereo not given)
54 | 183 to 186 °C | CC(C)(C)c1cc(C(C)(C)C)c2op(Cl)oc3c(C(C)(C)C)cc(C(C)(C)C)cc3c2c1
55 | 145 °C | C[C@H](CSC(=O)c1ccccc1)C(=O)N1C(=O)N(Cc2ccccc2)C[C@H]1C(=O)O
56 | 57 to 58 °C | N#Cc1ccc(C2NCCS2)cc1 (stereo not given)
57 | 117 to 120 °C | CCOC(=O)C1=Cc2cc(Cl)c(C)c(Cl)c2OC1C(F)(F)F (stereo not given)
58 | 65 to 69 °C | Cc1ccc2ccn(CC(C)O)c2c1 (racemic)
59 | 36 to 37 °C | CCOc1cncc(I)n1
60 | 152 to 153 °C | COc1cc(CO)ccc1OCc1sc(-c2ccccc2)nc1C
61 | 163 to 164 °C | CCOC(=O)c1ncn(-c2ccc(Cl)c(Cl)c2)c1C
62 | 162 °C | Cc1cc([N+](=O)[O-])ccc1NC=O
63 | 59 °C | CCCCCCCCCCC[C@@H](C[C@@H]1OC(=O)[C@H]1CCCCCC)OC(=O)CC(=O)NC(C)C
64 | 93 to 95 °C | CC(C)c1cccc(C(C)C)c1NC(=O)CCN1CCN(CCCSc2nc3ccccc3o2)CC1
65 | 166 to 168 °C | CCN1c2ncc(CO)cc2C(=O)N(C)c2ccc(Cl)nc21
66 | 175 to 177 °C | CC(C)S(=O)(=O)NC(=O)c1cccc([N+](=O)[O-])c1
67 | 177 to 178 °C | CC1=C(C(=O)Nc2cnc3c(C)cc(C)cc3c2-c2ccccc2Cl)Sc2ccccc2N1
68 | 153 to 154 °C | CC(C)(C)c1cc(CCC(=O)NN)cc(C(C)(C)C)c1O
69 | 168 to 170 °C | CC(C)Cc1ccc2nc(Cl)c(S(N)(=O)=O)n2n1
70 | 117 to 118 °C | CCOC(=O)c1ccc(-c2nc(CCl)c(C)o2)o1
71 | 158 to 160 °C | CC(=O)OC1CCC2(C)C(=CCC3C2CCC2(C)C(n4ccnn4)=CCC32)C1 (stereo not given)
72 | 92 to 93 °C | O=C(NCCCCCCOC(=O)N1CCCCC1)OC1CCN(C(=O)Oc2ccc(Oc3ccccc3)cc2)CC1
73 | 298 to 302 °C | Oc1nc2ccc(F)cc2n2c(C(F)(F)F)nnc12
74 | 124 to 126 °C | COC(=O)c1c(NCc2ccc(OC)c(Cl)c2)nc(SC)nc1OC
75 | 195 to 197 °C | CN(c1cccc2cc(C(=O)NCC3(SCc4ccccc4)CCN(C(=O)OC(C)(C)C)CC3)[nH]c12)S(=O)(=O)c1cccs1
76 | 239 °C | Cc1cc(O)cc(C)c1NC=O
77 | 104 to 105 °C | COC(=O)c1[nH]c2c(C)ccc(C)c2c1C=NOCc1ccccc1
78 | 116 to 118 °C | O=C(O)CCc1cnoc1-c1ccc(OC(F)(F)F)cc1

Row | melting point | SMILES
79 | 140 to 150 °C | CC(C)CC(CS)C(=O)N[C@@H](C)C(=O)N[C@@H](CCCNC(=N)N)C(=O)O (stereo not given in full)
80 | 85 to 90 °C | CC(C)(C)c1cc(C#N)c(Nc2ccccc2[N+](=O)[O-])s1
81 | 205 to 207 °C | O=C(C(=O)N1CCC(Oc2ccc(F)cc2)CC1)c1c[nH]c2ccccc12
82 | 133 °C | CCCCC[C@H]1CC[C@H](c2ccc(-c3ccc(CCc4ccc(OCC)cc4)cc3)cc2F)CC1
83 | 147 to 149 °C | Cc1nc(N2CCN(CCC3CC3)C2=O)sc1-c1cc[nH]n1
84 | 172 to 174 °C | COc1ccc(C2=NN(C3CCN(S(=O)(=O)N(C)C)CC3)C(=O)C(C)(C)C2)cc1OC
85 | 224 to 225 °C | O=c1c2c(O)c(O)ccc2c2cc(O)c(O)cc2n1Cc1ccccc1
86 | 92 to 96 °C | C[N+]1([O-])CCC(=C(c2ccsc2)c2ccsc2)CC1 (stereo not given)
87 | 153 °C | COC(OC)c1cc(O)cc(Cl)c1
88 | 108 to 109 °C | Cn1ncc(Cl)c(NCCN2CCC(c3noc4cc(F)ccc34)CC2)c1=O
89 | 140 to 142 °C | COc1ccc(NC(=O)NC(=O)Oc2ccccc2)cc1OC
90 | 189 to 192 °C | Cc1c(F)c(N2CCNC(C)C2)cc2c1c(=O)c(C(=O)O)cn2C1CC1 (stereo not given)
91 | 68 to 70 °C | Cc1nc(C23CC4CC(CC(C4)C2)C3)oc1COC(=O)C(C)(C)O
92 | 204 to 206 °C | O=[N+]([O-])c1ccc(S(=O)(=O)c2cc(Br)nc(Br)c2)cc1
93 | 173 to 175 °C | CCC(=O)N[C@@H](C)C(=O)N1CCC[C@H]1C(=O)NC(C)C
94 | 184 to 189 °C | COc1ccc2c(-c3cccc(F)c3F)noc2c1Cl
95 | 140 to 142 °C | O=C(O)C1(C2CCCc3ccccc32)CC1 (stereo not given)
96 | 53 to 55 °C | COC(=O)c1ccc(SC)c(OC2CCCC2)c1
97 | 63.5 to 65 °C | CCOC(=O)c1c(C(F)(F)F)nc(C(F)F)c(C=O)c1CC
98 | 92 to 94 °C | OC1CCc2cc3c(cc21)OCO3 (stereo not given)
99 | 102 to 104 °C | CN(C)C(=S)SC(C[N+](=O)[O-])c1ccccc1Cl (stereo not given)
100 | 114 to 115 °C | CN1CCN(c2ccccc2C2=NC(C)(C)CO2)C(c2cccs2)C1 (stereo not given)
101 | 153 to 155 °C | COc1cc(OC)c([N+](=O)[O-])cc1[N+](=O)[O-]
102 | 107 to 108 °C | COC(=O)c1cn(-c2c(Cl)cc(Cl)cc2Cl)nc1C(F)(F)F
103 | 147 to 148 °C | COc1ccc(Cc2nc(C(C)=O)c[nH]2)cc1
104 | 107 to 110 °C | CCOC(=O)C1=C(C)NC(C=NN)=C(C(=O)OCC)C1c1ccccc1Cl (stereo not given)

Row | SMILES | melting point
105 | CC(=O)C1=CC=C(C(C)(C)OO)C1 | 82 to 84 °C
